The test deals with hT2R8 (Homo sapiens (Human), UniProt Q9NYW2). Briefly: hT2R8 antagonist high-throughput FLIPR assay, stable cell line with G16g44, agonist andrographolide. The class given is cell-based. Particulars: for IC50: unit uM, read-out: IC50 on hT2R08 bitter receptor. In a few lines:
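HEK293 cells stably co-expressing hT2R8 and chimeric G16g44, read on FLIPR. Test compounds added together with andrographolide (200 μM), which drives the receptor to 70–80% of maximal activity; antagonism seen as reduced agonist response.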

Where [1] appears, read: read-out: IC50 on hT2R8 bitter receptor.
The mark [2] stands for this setting: table after Example 10-97, read-out: hT2R8 IC50.
Setting [3] is: table after Example 12-37, read-out: hT2R8 IC50.

Our source for the IC50 values is patent US9247759B2, “Identification of human T2R receptors that respond to bitter compounds that elicit the bitter taste in compositions, and the use thereof in assays to identify compounds that inhibit (block) bitter taste in compositions and use thereof” (SENOMYX, INC., priority 2007, dated 2016).

A word on the pIC50: it is −log10 of the IC50, conventionally taken in molar units. Broadly, the IC50 is the concentration that gives 50% inhibition.

Molecules are shown by their SMILES. pIC50: −log10 of the molar value. Read-outs that look alike come from different tables or passages of the source.

Sequence of hT2R8 (Q9NYW2 whole entry): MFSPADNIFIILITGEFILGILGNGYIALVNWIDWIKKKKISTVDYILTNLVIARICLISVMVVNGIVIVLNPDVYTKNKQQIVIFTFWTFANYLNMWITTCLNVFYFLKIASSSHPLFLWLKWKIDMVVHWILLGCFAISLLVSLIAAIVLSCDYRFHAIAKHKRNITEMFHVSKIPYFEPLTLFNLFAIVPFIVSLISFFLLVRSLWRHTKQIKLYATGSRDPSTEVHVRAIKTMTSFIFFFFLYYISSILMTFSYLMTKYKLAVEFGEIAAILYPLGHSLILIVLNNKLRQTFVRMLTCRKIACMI

`Cc1noc(C)c1Cn1cc(N2C(=O)CN(CCCc3ccccc3)C2=O)cn1` [Example 10-94, 3-(1-((3,5-dimethylisoxazol-4-yl)methyl)-1H-pyrazol-4-yl)-1-(3-phenylpropyl)imidazolidine-2,4-dione]: the pIC50 reads like this: under setting [1], 6.59; under setting [2], 7.17. `Cc1noc(C)c1Cn1cc(N2C(=O)CN(CCc3cccc(Cl)c3)C2=O)cn1` [Example 10-82, 1-(3-chlorophenethyl)-3-(1-((3,5-dimethylisoxazol-4-yl)methyl)-1H-pyrazol-4-yl)imidazolidine-2,4-dione]: the pIC50 under setting [1] is 6.70 and the pIC50 under setting [2] is 6.01. The matching figures for `Cc1noc(C)c1Cn1cc(N2C(=O)NC(CC3CCCCC3)C2=O)cn1` (stereo not drawn) [Example 10-57, 5-(cyclohexylmethyl)-3-(1-((3,5-dimethylisoxazol-4-yl)methyl)-1H-pyrazol-4-yl)imidazolidine-2,4-dione]: 6.02 and 6.02. With `Cc1noc(C)c1Cn1cc(-n2c(=O)n(C)n(C)c2=O)cn1` [Example 10-69, 4-(1-((3,5-dimethylisoxazol-4-yl)methyl)-1H-pyrazol-4-yl)-1,2-dimethyl-1,2,4-triazolidine-3,5-dione], the pIC50 is, setting by setting: under setting [1], 6.22; under setting [2], 6.15. With `Cc1noc(C)c1Cn1cc(NS(=O)(=O)c2ccccc2F)cn1` [Example 4-100, N-(1-((3,5-dimethylisoxazol-4-yl)methyl)-1H-pyrazol-4-yl)-2-fluorobenzenesulfonamide], the pIC50 (Table A, read-out: hT2R8 IC50) is 5.07.

As to `COC(=O)c1sccc1S(=O)(=O)Nc1cnn(Cc2c(C)noc2C)c1` [Example 4-104, methyl 3-(N-(1-((3,5-dimethylisoxazol-4-yl)methyl)-1H-pyrazol-4-yl)sulfamoyl)thiophene-2-carboxylate], the pIC50 (Table A, read-out: hT2R8 IC50) is 5.90. On to `CCn1c(=O)n(-c2cnn(Cc3c(C)noc3C)c2)c(=O)n1Cc1ccccc1` [Example 10-91, 1-benzyl-4-(1-((3,5-dimethylisoxazol-4-yl)methyl)-1H-pyrazol-4-yl)-2-ethyl-1,2,4-triazolidine-3,5-dione], for which the pIC50 under setting [1] is 7.40 and the pIC50 under setting [2] is 7.39. Consider `Cc1noc(C)c1Cn1cc(N2C(=O)[C@H](C)N(Cc3cccc(O)c3)C2=O)cn1` [Example 12-6, (S)-3-(1-((3,5-dimethylisoxazol-4-yl)methyl)-1H-pyrazol-4-yl)-1-(3-hydroxybenzyl)-5-methylimidazolidine-2,4-dione], for which, under setting [1], the pIC50 was 7.70. Turning to `Cc1noc(C)c1Cn1cc(-n2c(=O)n(C)n(CCc3ccc(F)cc3)c2=O)cn1` [Example 10-66, 4-(1-((3,5-dimethylisoxazol-4-yl)methyl)-1H-pyrazol-4-yl)-1-(4-fluorophenethyl)-2-methyl-1,2,4-triazolidine-3,5-dione], the pIC50 reads like this: under setting [1], 8.00; under setting [2], 7.92. Consider `COCCn1c(=O)n(-c2cnn(Cc3c(C)noc3C)c2)c(=O)n1Cc1ccccc1` [Example 10-92, 1-benzyl-4-(1-((3,5-dimethylisoxazol-4-yl)methyl)-1H-pyrazol-4-yl)-2-(2-methoxyethyl)-1,2,4-triazolidine-3,5-dione], for which the pIC50 under setting [1] is 7.22 and the pIC50 under setting [2] was 7.24. Consider `Cc1noc(C)c1Cn1cc(N2C(=O)CN(Cc3ccccc3N)C2=O)cn1` [Example 10-34, 1-(2-aminobenzyl)-3-(1-((3,5-dimethylisoxazol-4-yl)methyl)-1H-pyrazol-4-yl)imidazolidine-2,4-dione], for which the IC50 amounted to 0.02 µM. The pIC50 under setting [2] is 6.79.

With `Cc1noc(C)c1Cn1cc(N2C(=O)N(Cc3ccc(C#N)cc3)C(C)(C)C2=O)cn1` [Example 12-16, 4-((3-(1-((3,5-dimethylisoxazol-4-yl)methyl)-1H-pyrazol-4-yl)-5,5-dimethyl-2,4-dioxoimidazolidin-1-yl)methyl)benzonitrile], the pIC50 under setting [1] is 7.40. With `Cc1noc(C)c1Cn1cc(N2C(=O)NC(CCc3ccccc3)C2=O)cn1` (stereo not drawn) [Example 10-45, 3-(1-((3,5-dimethylisoxazol-4-yl)methyl)-1H-pyrazol-4-yl)-5-phenethylimidazolidine-2,4-dione], the pIC50 by setting is: under setting [1], 6.66; under setting [2], 6.10.

As to `Cc1noc(C)c1Cn1cc(N2C(=O)N(Cc3cccc(O)c3O)C(C)(C)C2=O)cn1` [Example 12-43, 1-(2,3-dihydroxybenzyl)-3-(1-((3,5-dimethylisoxazol-4-yl)methyl)-1H-pyrazol-4-yl)-5,5-dimethylimidazolidine-2,4-dione], the pIC50 under setting [3] is 7.00. For the molecule `COc1cccc(CC2NC(=O)N(c3cnn(Cc4c(C)noc4C)c3)C2=O)c1` (stereo not drawn) [Example 10-56, 3-(1-((3,5-dimethylisoxazol-4-yl)methyl)-1H-pyrazol-4-yl)-5-(3-methoxybenzyl)imidazolidine-2,4-dione], the pIC50 under setting [1] was 6.89 and the pIC50 under setting [2] is 6.88. On to `Cc1noc(C)c1Cn1cc(N2C(=O)N(Cc3cccc(C#N)c3)C(C)(C)C2=O)cn1` [Example 12-42, 3-((3-(1-((3,5-dimethylisoxazol-4-yl)methyl)-1H-pyrazol-4-yl)-5,5-dimethyl-2,4-dioxoimidazolidin-1-yl)methyl)benzonitrile], for which, under setting [3], the pIC50 is 7.05. On to `Cc1noc(C)c1Cn1cc(NC(=O)/C=C/c2ccccc2)cn1` [Example 4-15, N-(1-((3,5-dimethylisoxazol-4-yl)methyl)-1H-pyrazol-4-yl)cinnamamide], for which the pIC50 under setting [1] is 6.15.

Take `Cc1noc(C)c1Cn1cc(N2C(=O)N(Cc3cccc(OCCO)c3)C(C)(C)C2=O)cn1` [Example 12-63, 3-(1-((3,5-dimethylisoxazol-4-yl)methyl)-1H-pyrazol-4-yl)-1-(3-(2-hydroxyethoxy)benzyl)-5,5-dimethylimidazolidine-2,4-dione]: the pIC50 under setting [3] is 6.55.

For `COc1cc(CC(=O)Nc2cnn(Cc3c(C)noc3C)c2)ccc1O` [Example 4-69, N-(1-((3,5-dimethylisoxazol-4-yl)methyl)-1H-pyrazol-4-yl)-2-(4-hydroxy-3-methoxyphenyl)acetamide], where the note is “Table A, read-out: hT2R8 IC50”, the pIC50 is 5.33.

Regarding `Cc1noc(C)c1Cn1cc(-n2c(=O)[nH]c(=O)n(Cc3ccccc3)c2=O)cn1` [Example 9-9, 1-benzyl-3-(1-((3,5-dimethylisoxazol-4-yl)methyl)-1H-pyrazol-4-yl)-1,3,5-triazinane-2,4,6-trione], the pIC50 under setting [1] was 5.94 and the pIC50 under setting [2] was 5.81. With `COc1cccc(CNC(=O)CC2NC(=O)N(c3cnn(Cc4c(C)noc4C)c3)C2=O)c1` (stereo not drawn) [Example 10-50, 2-(1-(1-((3,5-dimethylisoxazol-4-yl)methyl)-1H-pyrazol-4-yl)-2,5-dioxoimidazolidin-4-yl)-N-(3-methoxybenzyl)acetamide], the pIC50 by setting is: under setting [1], 5.77; under setting [2], 5.75. As to `Cc1noc(C)c1Cn1cc(N2C(=O)CN(Cc3cccc(CO)c3)C2=O)cn1` [Example 10-33, 3-(1-((3,5-dimethylisoxazol-4-yl)methyl)-1H-pyrazol-4-yl)-1-(3-(hydroxymethyl)benzyl)imidazolidine-2,4-dione], the IC50 worked out at 0.3 µM. The pIC50 under setting [2] was 6.49. Take `Cc1noc(C)c1Cn1cc(N2C(=O)N(Cc3ccccn3)C(C)(C)C2=O)cn1` [Example 12-61, 3-(1-((3,5-dimethylisoxazol-4-yl)methyl)-1H-pyrazol-4-yl)-5,5-dimethyl-1-(pyridin-2-ylmethyl)imidazolidine-2,4-dione]: the pIC50 under setting [3] is 6.59. On to `COCc1cccc(CN2C(=O)N(c3cnn(Cc4c(C)noc4C)c3)C(=O)C23CC3)c1` [Example 12-14, 6-(1-((3,5-dimethylisoxazol-4-yl)methyl)-1H-pyrazol-4-yl)-4-(3-(methoxymethyl)benzyl)-4,6-diazaspiro[2.4]heptane-5,7-dione], for which the pIC50 under setting [1] was 7.52.

For the molecule `Cc1cccc(CN2C(=O)N(c3cnn(Cc4c(C)noc4C)c3)C(=O)C2(C)C)c1F` [Example 12-82, 3-(1-((3,5-dimethylisoxazol-4-yl)methyl)-1H-pyrazol-4-yl)-1-(2-fluoro-3-methylbenzyl)-5,5-dimethylimidazolidine-2,4-dione], under setting [3], the pIC50 was 6.09.

Consider `Cc1noc(C)c1Cn1cc(N2C(=O)N(Cc3ccccc3)C(C)(C)C2=O)cn1` [Example 12-67, 1-benzyl-3-(1-((3,5-dimethylisoxazol-4-yl)methyl)-1H-pyrazol-4-yl)-5,5-dimethylimidazolidine-2,4-dione], for which, under setting [3], the pIC50 is 6.49. `Cc1noc(C)c1Cn1cc(N2C(=O)N(Cc3ccc(CO)cc3)C(C)(C)C2=O)cn1` [Example 12-88, 3-(1-((3,5-dimethylisoxazol-4-yl)methyl)-1H-pyrazol-4-yl)-1-(4-(hydroxymethyl)benzyl)-5,5-dimethylimidazolidine-2,4-dione]: the pIC50 under setting [3] is 6.44. In the case of `COc1ccc(CN2CC(=O)N(c3cnn(Cc4c(C)noc4C)c3)C2=O)cc1` [Example 10-29, 3-(1-((3,5-dimethylisoxazol-4-yl)methyl)-1H-pyrazol-4-yl)-1-(4-methoxybenzyl)imidazolidine-2,4-dione], the IC50 came to 0.07 µM. For the same molecule, the pIC50 under setting [2] is 5.51. Regarding `Cc1noc(C)c1Cn1cc(NC(=O)c2ccc3ocnc3c2)cn1` [Example 4-72, N-(1-((3,5-dimethylisoxazol-4-yl)methyl)-1H-pyrazol-4-yl)benzo[d]oxazole-5-carboxamide], the negative logarithm of the IC50 (pIC50) (Table A, read-out: hT2R8 IC50) was 5.59. On to `Cc1noc(C)c1Cn1cc(N2C(=O)N[C@@H](Cc3ccccc3)C2=O)cn1` [Example 10-3, (S)-5-benzyl-3-(1-((3,5-dimethylisoxazol-4-yl)methyl)-1H-pyrazol-4-yl)imidazolidine-2,4-dione], for which the negative logarithm of the IC50 (pIC50) under setting [2] was 6.95. For the molecule `Cc1noc(C)c1Cn1cc(NC(=O)Cc2ccoc2)cn1` [Example 4-58, N-(1-((3,5-dimethylisoxazol-4-yl)methyl)-1H-pyrazol-4-yl)-2-(furan-3-yl)acetamide], the pIC50 (Table A, read-out: hT2R8 IC50) was 5.06.
